Target: T1, PAPD5 (Homo sapiens, UniProt Q8NDF8)
T1 construct: made in house
Test: High-throughput luminescence (KinaseGlo) RNA polyadenylation assay, ATP utilization by recombinant PAPD5
Format: biochemical
Settings: for Fold-change determined at compound concentration 33 μM / Fold-change determined at compound concentration 100 μM / Fold-change determined at compound concentration 10 μM: Table 4 (entries of Table 5), ratio of luminescence with inhibitor to DMSO; for Fold-change determined at compound concentration 33 μM: 33 μM compound; for Fold-change determined at compound concentration 100 μM: higher = higher inhibition; for Fold-change determined at compound concentration 10 μM: 10 μM compound
Experimental: Optimal conditions for an in vitro RNA polyadenylation assay using recombinant PAPD5, ATP and an oligonucleotide substrate were identified. The HTS assay involved ATP utilization by PAPD5, which reads out as a decreased luminescence signal produced by luciferase (KinaseGlo, Promega, Madison, WI).
100 nl of compound dissolved in DMSO was transferred to each well of the assay plate via pin transfer. For negative control wells, DMSO alone was added. Plates were gently vortexed for 5 seconds, then incubated for 2 hours at room temperature.
After 2 hours, 5 ul of luciferase (Promega KinaseGlo, Madison, WI) was added using a MultiDrop Combi (Thermo Fisher Scientific, Waltham, MA). The mixture was gently vortexed for 5 seconds and incubated for 10 minutes at room temperature. Plates were spun for 1 minute prior to luminescence measurements. Luminescent measurements were quantitated using a PerkinElmer EnVision™ plate reader.
˜100,000 compounds from various libraries at the ICCB-Longwood were screened in this manner in duplicate.
The fold change was the ratio of luminescence from a sample with inhibitor compared to that with DMSO. Thus, a higher number indicates higher inhibition.

T1 sequence (Q8NDF8 68-698 isoform Q8NDF8-5): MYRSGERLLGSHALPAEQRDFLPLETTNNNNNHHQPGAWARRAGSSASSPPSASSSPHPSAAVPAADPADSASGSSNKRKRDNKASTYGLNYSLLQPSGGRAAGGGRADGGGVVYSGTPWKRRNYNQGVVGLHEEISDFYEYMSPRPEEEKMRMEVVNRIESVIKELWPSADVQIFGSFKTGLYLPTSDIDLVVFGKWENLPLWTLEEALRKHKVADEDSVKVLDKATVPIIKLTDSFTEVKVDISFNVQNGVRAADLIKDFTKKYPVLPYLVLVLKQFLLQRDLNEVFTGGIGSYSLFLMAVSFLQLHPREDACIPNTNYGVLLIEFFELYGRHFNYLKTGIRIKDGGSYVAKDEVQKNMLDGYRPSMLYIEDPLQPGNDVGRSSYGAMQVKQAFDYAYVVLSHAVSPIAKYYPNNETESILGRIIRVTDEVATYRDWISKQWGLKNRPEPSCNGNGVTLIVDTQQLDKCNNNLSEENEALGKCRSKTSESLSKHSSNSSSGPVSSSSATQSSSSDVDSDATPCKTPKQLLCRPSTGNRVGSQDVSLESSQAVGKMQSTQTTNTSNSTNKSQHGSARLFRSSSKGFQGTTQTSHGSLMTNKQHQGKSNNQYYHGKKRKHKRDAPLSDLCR

Compound | Fold-change determined at compound concentration 33 μM | Fold-change determined at compound concentration 100 μM (100 μM compound) | fold change at 100 μM concentration in the assay (100 μM compound) | Fold-change determined at compound concentration 10 μM
3-{7-Oxo-2.8.10- triazatricyclo[7.4.0.02,6]trideca- 1(13),3,5,9,11-pentaen-8-yl}propionic acid [Entry 68] | 1.162 | 1.389 | – | –
CC(C)C(CO)Nc1nc(Nc2ccc(C(=O)O)c(Cl)c2)c2ncn(C(C)C)c2n1 (stereo in doubt) [Entry 46, 2-chloro-4-[[2-[[(2R)-1-hydroxy-3-methylbutan-2-yl]amino]-9-propan-2-ylpurin-6-yl]amino]benzoic acid] | 1.079 | 1.328 | – | –
O=C(O)C1CC(=O)N(Cc2ccc3c(c2)OCO3)C1 (stereo not shown) [1-(1,3-benzodioxol-5-ylmethyl)-5-oxopyrrolidine-3-carboxylic acid] | – | – | 3.9 | –
Cc1csc(-c2cc(S(=O)(=O)Nc3cc(C)nc4ccccc34)c(C)s2)n1 [Entry 29, 2-methyl-N-(2-methylquinolin-4-yl)-5-(4-methyl-1,3-thiazol-2-yl)thiophene-3-sulfonamide] | 1.073 | 1.22 | – | –
Nc1c2ccccc2nc2ccccc12 [Entry 30, acridin-9-amine] | 1.313 | 1.944 | – | –
CCCCN(C)c1cc(C(=O)O)c2cc(NC(=O)c3ccccc3OC)ccc2n1 [Entry 31, 2-[butyl(methyl)amino]-6-[(2-methoxybenzoyl)amino]quinoline-4-carboxylic acid] | 1.304 | 1.895 | – | –
O=C(O)c1cccc(Nc2ncnc3ccc(Br)cc23)c1 [Entry 32, 3-[(6-bromoquinazolin-4-yl)amino]benzoic acid] | 1.114 | 1.236 | – | –
Nc1nc(N2CCCC2)nc2ccccc12 [Entry 33, 2-(1-pyrrolidinyl)-4-quinazolinamine] | 1.175 | 1.505 | – | –
OCCN(CCO)c1nc(N2CCCCC2)c2nc(N(CCO)CCO)nc(N3CCCCC3)c2n1 [Entry 34, 2,2′,2″,2″′-((4,8-Di(piperidin-1-yl)pyrimido[5,4-d]pyrimidine-2,6-diyl)bis(azanetriyl))tetraethanol] | 1.098 | 1.212 | – | –
O=C(O)C1CCCN(c2ncnc3c2oc2ccccc23)C1 (stereo not shown) [Entry 35, 1-[1]benzofuro[3,2-d]pyrimidin-4-ylpiperidine-3-carboxylic acid] | 1.04 | 1.287 | – | –
O=C(NCc1ccncc1)C1CCCN(c2ncnc3c2oc2ccccc23)C1 (stereo not shown) [Entry 36, 1-([1]benzofuro[3,2-d]pyrimidin-4-yl)-N-(pyridin-4-ylmethyl)piperidine-3-carboxamide] | 1.096 | 1.239 | – | –
O=C(NCc1ccccn1)C1CCCN(c2ncnc3c2oc2ccccc23)C1 (stereo not shown) [Entry 37, 1-([1]benzofuro[3,2-d]pyrimidin-4-yl)-N-(pyridin-2-ylmethyl)piperidine-3-carboxamide] | 1.077 | 1.218 | – | –
Cc1ccc(-n2c(N3CCCC(C(=O)O)C3)nc3ccsc3c2=O)cc1 (stereo not shown) [Entry 38, 1-[3-(4-methylphenyl)-4-oxo-3,4-dihydrothieno[3,2-d]pyrimidin-2-yl]piperidine-3-carboxylic acid] | 1.207 | 1.631 | – | –
O=C(O)C1CCCN(c2nc3c(-c4ccccc4)csc3c(=O)[nH]2)C1 (stereo not shown) [Entry 39, 1-(4-oxo-7-phenyl-3,4-dihydrothieno[3,2-d]pyrimidin-2-yl)piperidine-3-carboxylic acid] | 1.19 | 1.527 | – | –
COc1ccc(Nc2ncnc3sc(C(=O)O)c(C)c23)cc1OC [Entry 40, 4-(3,4-dimethoxyanilino)-5-methylthieno[2,3-d]pyrimidine-6-carboxylic acid] | 1.589 | 2.956 | – | –
c1cc(CNc2ncnc3sc4c(c23)CCCC4)ccn1 [Entry 41, N-(pyridin-4-ylmethyl)-5,6,7,8-tetrahydro[1]benzothieno[2,3-d]pyrimidin-4-amine] | 1.621 | 2.279 | – | 1.249

Compound | Fold-change determined at compound concentration 33 μM | Fold-change determined at compound concentration 100 μM (100 μM compound) | fold change at 100 μM concentration in the assay (100 μM compound) | Fold-change determined at compound concentration 10 μM
COc1ccc(-c2nc(N3CCOCC3)c3sc(CN(C)c4ncc(C(=O)NO)cn4)cc3n2)cn1 [Entry 42, N-hydroxy-2-[[2-(6-methoxypyridin-3-yl)-4-morpholin-4-ylthieno[3,2-d]pyrimidin-6-yl]methyl-methylamino]pyrimidine-5-carboxamide] | 1.905 | 2.528 | – | 1.382
NC(=O)C1CCN(c2ncnc3sc4c(c23)CCCC4)CC1 [Entry 43, 1-(5,6,7,8-tetrahydro[1]benzothieno[2,3-d]pyrimidin-4-yl)piperidine-4-carboxamide] | 1.648 | 2.294 | – | 1.292
NC(=O)C1CCN(c2nc3c(S(=O)(=O)c4ccccc4)nnn3c3ccsc23)CC1 [Entry 44, 1-(3-(phenylsulfonyl)thieno[2,3-e][1,2,3]triazol[1,5-a]pyrimidin-5-yl)piperidine-4-carboxamide] | 1.273 | 1.651 | – | –
c1cc(CNc2nc(C3CC3)nc3c2CCC3)ccn1 [Entry 45, N-(2-cyclopropyl-6,7-dihydro-5H-cyclopenta[d]pyrimidin-4-yl)-N-(4-pyridylmethyl)amine] | 1.429 | 1.936 | – | –
CC(C)n1cnc2c(Nc3ccc(C(=O)O)cc3)nc(Cl)nc21 [Entry 47, 4-[(2-chloro-9-propan-2-ylpurin-6-yl)amino]benzoic acid] | 1.095 | 1.393 | – | –
O=S(=O)(Nc1ccc2nncn2n1)c1ccc(Br)cc1 [Entry 49, 4-bromo-N-([1,2,4]triazolo[4,3-b]pyridazin-6-yl)benzenesulfonamide] | 1.105 | 1.318 | – | –
CC(C)c1nnc2ccc(N3CCN(C)CC3)nn12 [Entry 50, 3-isopropyl-6-(4-methylpiperazino)[1,2,4]triazolo[4,3-b]pyridazine] | 1.336 | 2.083 | – | –
O=S(=O)(Nc1ccc2nnc(-c3ccccc3)n2n1)c1ccc(Cl)cc1 [Entry 51, 4-chloro-N-(3-phenyl-[1,2,4]triazolo[4,3-b]pyridazin-6-yl)benzenesulfonamide] | 1.242 | 1.825 | – | –
Clc1ccc(Nc2nnc(Cc3ccncc3)c3ccccc23)cc1 [Entry 52, N-(4-chlorophenyl)-4-(pyridin-4-ylmethyl)phthalazin-1-amine] | 1.133 | 1.275 | – | –
CCOC(=O)C1CCN(c2nnc(Cc3ccncc3)c3ccccc23)CC1 [Entry 53, Ethyl 1-[4-(pyridin-4-ylmethyl)phthalazin-1-yl]piperidine-4-carboxylate] | 1.308 | 1.807 | – | –
Cc1ccc(-c2nnc(Nc3ccc(OCC(N)=O)cc3)c3ccccc23)cc1S(=O)(=O)N(C)C [Entry 54, 2-[4-({4-[3-(dimethylsulfamoyl)-4-methylphenyl]phthalazin-1-yl}amino)phenoxy]acetamide] | 1.324 | 1.562 | – | –
c1ccc(CC2CCN(c3nnc(Cc4ccncc4)c4ccccc34)CC2)cc1 [Entry 55, 1-(4-benzylpiperidin-1-yl)-4-(pyridin-4-ylmethyl)phthalazine] | 1.262 | 1.592 | – | –
Cc1ccc(-c2nnc(Nc3ccc(OCC(N)=O)cc3)c3ccccc23)cc1S(=O)(=O)NCC1CCCO1 (stereo not shown) [Entry 56, 2-[4-[[4-[4-methyl-3-(oxolan-2-ylmethylsulfamoyl)phenyl]phthalazin-1-yl]amino]phenoxy]acetamide] | 1.226 | 1.487 | – | –
Cc1ccc(CNC(=O)Nc2cn(CC(C)C)c(=O)c3ccccc23)cc1 [Entry 57, 1-[(4-methylphenyl)methyl]-3-[2-(2-methylpropyl)-1-oxoisoquinolin-4-yl]urea] | 1.142 | 1.518 | – | –
CC(C)Cn1cc(NC(=O)NCc2ccccc2)c2ccccc2c1=O [Entry 57a, 1-benzyl-3-[2-(2-methylpropyl)-1-oxoisoquinolin-4-yl]urea] | 1.099 | 1.574 | – | –

— patent US12171755B2, “PAPD5 inhibitors and methods of use thereof” (Children's Medical Center Corporation, priority 2017, dated 2024)
